In experiment [1] the target is T1, 15-hydroxyprostaglandin dehydrogenase [NAD(+)] (Homo sapiens, UniProt P15428).
T1 sequence (P15428 whole entry): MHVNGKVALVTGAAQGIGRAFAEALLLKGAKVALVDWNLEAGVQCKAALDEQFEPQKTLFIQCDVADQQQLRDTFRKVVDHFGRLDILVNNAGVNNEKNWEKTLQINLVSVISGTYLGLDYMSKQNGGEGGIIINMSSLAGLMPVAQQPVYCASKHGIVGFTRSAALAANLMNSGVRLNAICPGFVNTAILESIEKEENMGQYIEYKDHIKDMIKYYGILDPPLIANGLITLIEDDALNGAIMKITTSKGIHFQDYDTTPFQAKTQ
Description: Inhibition of 15-PGDH in human A549 cells assessed as increase in IL-1beta-stimulated PGE2 levels measured after 24 hrs by competitive HTRF assay. In kind it is cell-based. Background: Time-resolved FRET reads energy transfer from a long-lived donor to a nearby acceptor.

Experiment [2] deals with T1, 15-hydroxyprostaglandin dehydrogenase [NAD(+)]. Description: Inhibition of recombinant human 15-PGDH using PGE2 and beta-NAD+ as substrate preincubated for 15 mins followed by substrate addition and measured after 60 mins.

As for `Cn1cc2cc(-c3ccc4nc([C@H](O)C5CC(F)(F)C5)sc4n3)cnc2n1`, the IC50 in experiment [1] amounted to 0.05 nM; in experiment [2] it was 0.22 nM.

On to `Cn1cc2cc(-c3ccc4cc([C@]5(O)C[C@@H](C(F)(F)F)C5)sc4n3)cnc2n1`, for which the IC50 in experiment [1] was 0.05 nM.

In general, IC50 refers to the point on the concentration scale where inhibition reaches its midpoint.
